Results taken from patent US6372261B1, “Process for producing Guilu ErXiangao” (Pharmaceutical Industry Technology and Development Center, priority 2000, dated 2002).

Test system: leukopenia caused by 5-FU
Test: hemopoietic effect in animal experimentation: leukopenia caused by 5-FU in rats, blood cell counts
Assay type: in vivo
[1] = male rats, 5-FU 100 mg/kg orally twice on 8th day, blood after 14 days, mean ± SEM
[2] = rats, 5-FU model, values of Table 1
[3] = rats, p<0.01 vs control (5-FU), p<0.05 vs trial 1

O=c1[nH]cc(F)c(=O)[nH]1 [Trial 5-FU, 5-fluorouracil]
GrC. (granulocyte) [1]: 0.66 ± 0.11 × 10^3/μl
LymC. (lymphocyte) [1]: 2.21 ± 0.15 × 10^3/μl
MonoC. (monocyte) [1]: 0.84 ± 0.12 × 10^3/μl
Platelet [1]: 983.5 ± 52.0 × 10^3/μl
RBC (red blood cell) [1]: 9.58 ± 0.14 × 10^6/μl
WBC (white blood cell) [1]: 3.70 ± 0.23 × 10^3/μl
granulocyte (mean) [2]: 0.66 ± 0.11 10^3/µL
lymphocyte (mean) [2]: 2.21 ± 0.15 10^3/µL
monocyte (mean) [2]: 0.84 ± 0.12 10^3/µL
white blood cells (mean) [2]: 3.7 ± 0.23 10^3/µL
effect on granulocytes (in words) (rats, p<0.01 vs control (5-FU) or vs trial 1): inhibited
effect on lymphocytes (in words) [3]: inhibited
effect on monocytes (in words) [3]: inhibited
effect on white blood cells (in words) (rats, unpaired student t test, p<0.01 vs control (5-FU) or vs trial 1): inhibited
